Values after ≈ are worked out from the molar mass of the structure shown.

For data set [1], the system named is SF-295. The data set is described as follows: Cytotoxicity against human SF-295 cells. In kind it is functional, cell-based.
For data set [2], the system named is SF-295. Nature of the data set: Cytotoxicity against human SF-295 cells assessed as reduction in cell growth incubated for 96 hrs by MTT assay. In kind it is functional, cell-based. As to conditions: SF-295, 96 h. (In general: Tetrazolium dyes change colour on reduction, which living cells bring about.)
Data set [3] can be described thus: Toxicity in ip dosed B6D2F1 mouse assessed as maximum tolerated dose measured after 28 days. In kind it is organism-based. As to conditions: in vivo, time 28 day.
Data set [4] concerns SW1088. Nature of the data set: Cytotoxicity against human SW1088 cells assessed as reduction in cell growth incubated for 24 hrs by MTT colorimetric assay. It counts as functional, cell-based. To be noted: SW1088, 24 h.
Data set [5] in a line: Cytotoxicity against human U373 MG cells assessed as reduction in cell growth incubated for 24 hrs by MTT colorimetric assay. It counts as functional, cell-based, U-373MG ATCC.
For data set [6], the system named is U-87 MG. The data set is described as follows: Cytotoxicity against human U-87 MG cells by resazurin dye based assay. In kind it is functional, cell-based, U-87MG ATCC. Background: Resazurin is reduced to fluorescent resorufin, in cell work by metabolically active cells.
A short description of data set [7]: Cytotoxicity against human U87MG.deltaEGFR cells by resazurin dye based assay. In kind it is functional, cell-based.
Data set [8] relates to U-87 MG. The data set is described as follows: Cytotoxicity against human U-87 MG cells assessed as reduction in cell growth incubated for 48 hrs by MTT assay. It counts as functional, cell-based, U-87MG ATCC.
For data set [9], the system named is T98G. Nature of the data set: Cytotoxicity activity against human T98G cells assessed as reduction in cell growth measured for 48 hrs by MTS reagent based assay. In kind it is functional.
Data set [10] deals with U-87 MG. The data set is described as follows: Growth inhibition of human U-87 MG cells measured after 72 hrs by MTT assay. In kind it is functional, U-87MG ATCC.
A short description of data set [11]: Growth inhibition of human U373 MG cells measured after 72 hrs by MTT assay. It counts as functional, U-373MG ATCC.
The subject of data set [12] is Hs68. Nature of the data set: Growth inhibition of human Hs68 cells measured after 72 hrs by MTT assay. It counts as functional.
Data set [13] relates to T98G. The data set is described as follows: Growth inhibition of human T98G cells measured after 72 hrs by MTT assay. It counts as functional.
For data set [14], the system named is U-251. The data set is described as follows: Antiproliferative activity against human U-251MG cells assessed as reduction in cell viability incubated for 72 hrs by SRB assay. In kind it is functional, cell-based. To be noted: U-251, 72 h. (The SRB assay estimates cell density from bound dye.)
Data set [15] in a line: Cytotoxicity against HEK293T cells assessed as reduction in cell viability incubated for 72 hrs by MTS assay. It counts as toxicity, cell-based, HEK-293T. To be noted: human.
For data set [16], the system named is U-251. Nature of the data set: Cytotoxicity against human U-251MG cells assessed as reduction in cell growth incubated for 24 hrs by MTT assay. It counts as functional, cell-based. As to conditions: U-251, 24 h.
Data set [17] is described as follows: Cytotoxicity against human CHG-5 cells assessed as reduction in cell growth incubated for 24 hrs by MTT assay. To be noted: CHG-5, 24 h. In kind it is functional, cell-based.
The subject of data set [18] is CCF-STTG1. Nature of the data set: Cytotoxicity against human CCF-STTG1 cells assessed as reduction in cell growth incubated for 24 hrs by MTT assay. In kind it is functional, cell-based. To be noted: CCF-STTG1, 24 h.
The nature of data set [19]: Cytotoxicity against human SHG-44 cells assessed as reduction in cell growth incubated for 24 hrs by MTT assay. It counts as functional, cell-based. To be noted: SHG-44, 24 h.
Data set [20] relates to SF-268. Nature of the data set: Cytotoxicity against human SF-268 cells assessed as reduction in cell viability incubated for 72 hrs by MTT assay. To be noted: SF-268, 72 h. In kind it is functional, cell-based.
Data set [21] in a line: Cytotoxicity against human GSC-3 cells assessed as reduction in cell growth incubated for 72 hrs by MTS assay. It counts as functional, cell-based. To be noted: GSC-3, 72 h.
Data set [22] is described as follows: Cytotoxicity against rat ASK cells assessed as reduction in cell growth by SRB assay. In kind it is functional. To be noted: read-out: ED50 (the source's name).
Data set [23] is described as follows: Cytotoxicity against human GSC-18 cells assessed as reduction in cell growth incubated for 72 hrs by MTS assay. It counts as functional, cell-based. As to conditions: GSC18, 72 h.

A word on the IC50: it is the concentration that gives 50% inhibition. On to `O=C1c2ccc(Br)cc2-[n+]2ccc3c([nH]c4ccccc43)c21`, for which the IC50 in data set [1] is 3.9 µM; in [2] it was 5.6 µM.

As a reminder, the MTD is the highest dose tested that stayed within the study's limit of toxicity. Take `O=C1c2c(O)ccnc2-c2nccc3c2c1nc1ccccc13`: the MTD at 672 h in data set [3] is over 160 mg/kg. Further, the 50% inhibitory concentration (IC50) in [4] and in [5] was 6 µM in each case.

As to `O=C1c2cccnc2-c2nccc3c2c1nc1cc(Br)ccc13`, the MTD at 672 h in data set [3] turned out to be 20 mg/kg. Moreover, the half-maximal inhibitory concentration (IC50) in data set [4] was determined as 0.4 µM; in data set [5], 0.6 µM.

As to `COc1cc(OC)c2c(=O)c3ccccc3n(C)c2c1`, the concentration for half-maximal inhibition (IC50) stood at 17.6 µM in data set [6] and 8.88 µM in [7].

Regarding `COc1ncc(O)c2c(O)cccc12`, the IC50 in data set [8] came out at 2.14 µM.

For the compound `C=CC(C)(C)n1cc(Cc2cn(C(C)(C)C=C)c3ccccc23)c2ccccc21`, in [9], the IC50 turned out to be 18 mg/L (≈ 47.1 µM).

On to `COc1c2c(cc3[nH]c4ccccc4c(=O)c13)OCO2`, for which the values for the IC50 in data set [6] and in [7] were 89.3 µM and 5.72 µM, respectively.

In general, GI50 refers to the concentration that inhibits growth by half. `CO[C@@H]1C=C[C@]23c4cc5c(cc4[C@@H](O)N(C[C@H]2O)[C@@H]3C1)OCO5`: the GI50 in [10] came out at 6 µM; in data set [11], 7 µM; in data set [12], 4 µM; in [13] it was 14 µM.

For the compound `CC1=N[C@H](C(=O)O)CC2c3[nH]ccc3NC12` (stereo partly drawn), in data set [14], the half-maximal inhibitory concentration (IC50) stood at 36.3 µM.

Regarding `COc1cc2c(cc1OC)[C@H](Cc1cc(O)c(OC)c(Oc3ccc(C=O)cc3)c1)N(C)CC2`, in data set [15], the concentration for half-maximal inhibition (IC50) at 72 h was found to be 20 mg/L (≈ 43.1 µM).

In the case of `C=CC(C)(C)[C@@]12C[C@H]3C(=O)N[C@@H](Cc4ccccc4)C(=O)N3[C@@H]1N(C(C)=O)c1ccccc12`, the 50% inhibitory concentration (IC50) in [9] worked out at 20 mg/L (≈ 45.1 µM).

Take `COC(=O)N1CCc2cc3c(c4c2[C@@H]1Cc1ccc(OC)c(OC)c1-4)OCO3`: the IC50 in [16] was 11.3 µM; in [17], 9.7 µM; in data set [18], 9.2 µM; in data set [19], 11.3 µM.

In the case of `CC[C@H](/C=C(C)/C=C/C(=O)c1c(O)c(-c2ccc(O)cc2)c[nH]c1=O)CO`, the IC50 in [20] was 31.1 µM.

Consider `COC(=O)N1CCc2cc(O)c(OC)c3c2[C@@H]1Cc1ccc(OC)c(O)c1-3`, for which the IC50 is 11.9 µM in [16], 12.2 µM in data set [17], 10.4 µM in [18] and 11.9 µM in data set [19].

Turning to `COc1cc2c(cc1Oc1c(C=O)ccc(OC)c1OC)cc1c3c(c(OC)c(OC)c(OC)c32)CCN1C`, the 50% inhibitory concentration (IC50) in data set [21] worked out at 4.54 mg/L (≈ 8.51 µM); in data set [23], 5.37 mg/L (≈ 10.1 µM). Also, the EC50 in [22] turned out to be 2.11 mg/L (≈ 3.95 µM).

The values are drawn from ChEMBL document CHEMBL6115010, “Targeting glioma with heteroaromatic alkaloids: A review of potential therapeutics” (Bioorg Med Chem, 2025).
